Experimental data taken from US8450342B2, “Perharidines as CDK inhibitors” (Centre Nationale de la Recherche Scientifique, priority 2008, dated 2013).
Like-named read-outs stand apart in the source and are kept apart here.

Experiments:
DYRK1A = DYRK1A (Homo sapiens, UniProt Q13627); assay: DYRK1A kinase assay; format: biochemical; details: Table 5; read-out: DYRK1A
Description: (§1) Blank values were subtracted and activities expressed in % of the maximal activity, i.e. in the absence of inhibitors. Controls were performed with appropriate dilutions of dimethylsulfoxide.
(§2) The compounds were tested at various concentrations in the kinase assays, as described in the Methods section.

B2-CLL lymphocytes = assay: Survival / cell death of B2-CLL lymphocytes from patients; format: cell-based, human
Description: Cell viability was determined by measuring the reduction of 3-(4,5-dimethylthiazol-2-yl)-5-(3-carboxymethoxyphenyl)-2-(4-sulfophenyl)-2/H-tetrazolium (MTS). Cell death was determined by measuring the level of lactate dehydrogenase activity (LDH) released upon cell lysis.

CDK5/p25 = target: T1, CDK5/p25 (Homo sapiens, UniProt Q00535); assay: CDK5/p25 kinase assay; format: biochemical
T1 construct: made in house
Description: (§3) Controls were performed with appropriate dilutions of dimethylsulfoxide.
(§4) ATP (3,000 Ci/mmol; 10 mCi/ml) in a final volume of 30 μl. After 30 min. incubation at 30° C., 25 μl aliquots of supernatant were spotted onto 2.5×3 cm pieces of Whatman P81 phosphocellulose paper, and, 20 sec. later, the filters were washed five times (for at least 5 min. each time) in a solution of 10 ml phosphoric acid/liter of water. The wet filters were counted in the presence of 1 ml ACS (Amersham) scintillation fluid.

[1] = system: HEK 293 human embryonic kidney cell line; assay: Cell survival (MTS assay), HEK293; format: cell-based
Description: (§5) SH-SY5Y human neuroblastoma cells were grown in DMEM medium (Invitrogen, Cergy Pontoise, France). […] Human foreskin primary fibroblasts (kindly provided by Dr. Gilles Ponzio) were grown in DMEM supplemented with 2 mM L-glutamine and 20 mM HEPES. All the media were supplemented with antibiotics (penicillin-streptomycin) from Lonza and 10% volume of FCS from Invitrogen. Cells were cultured at 37° C. with 5% CO2. Drug treatments were performed on exponentially growing cultures at the indicated time and concentrations. Control experiments were carried out using appropriate dilutions of DMSO. MDCK cell-lines were used to test compounds PKD.

Erk2 = Erk2 (Homo sapiens, UniProt P28482); assay: Erk2 kinase assay; format: biochemical; details: Table 5
Description: as §1, §2

CDK2/cyclin A = target: T2, CDK2/cyclin A (Homo sapiens, UniProt P24941); assay: CDK2/cyclin A kinase assay; format: biochemical; details: Table 5; read-out: CDK2/cyclin A
T2 construct: made in house; host or cells: insect cells
Description: as §1
CDK2/cyclin A (human, recombinant, expressed in insect cells) was assayed as described for CDK1/cyclin B.

GSK-3α/β = GSK-3α/β kinase assay; format: biochemical, porcine
Description: as §1

CK1δ/ε = assay: CK1 kinase assay; format: biochemical, porcine; details: read-out: CK1
Description: as §1

CDK9/cyclin T = target: T3, CDK9/cyclin T (Homo sapiens, UniProt P50750); assay: CDK9/cyclin T kinase assay; format: biochemical; details: Table 5; read-out: CDK9/cyclin T
T3 construct: made in house; host or cells: insect cells
Description: as §1

[2] = system: RNA polymerase II Ser2 phosphorylation; assay: Western blot, RNA polymerase II Ser2 phosphorylation in SH-SY5Y; format: cell-based, human; details: for total RNA pol II: FIG. 10
Description: (§6) SH-SY5Y human neuroblastoma cells were grown in DMEM medium (Invitrogen, Cergy Pontoise, France). The HEK 293 human embryonic kidney cell line was grown in MEM medium from Invitrogen. Human foreskin primary fibroblasts (kindly provided by Dr. Gilles Ponzio) were grown in DMEM supplemented with 2 mM L-glutamine and 20 mM HEPES. All the media were supplemented with antibiotics (penicillin-streptomycin) from Lonza and 10% volume of FCS from Invitrogen. Cells were cultured at 37° C. with 5% CO2. Drug treatments were performed on exponentially growing cultures at the indicated time and concentrations. Control experiments were carried out using appropriate dilutions of DMSO. MDCK cell-lines were used to test compounds PKD.
(§7) Cells were resuspended and lysed for 30 minutes at 4° C. in Homogenization Buffer [60 mM β-glycerophosphate, 15 mM p-nitrophenyl phosphate, 25 mM MOPS (pH 7.2), 15 mM EGTA, 15 mM MgCl2, 1 mM dithiothreitol, 1 mM sodium vanadate, 1 mM NaF, 1 mM phenylphosphate, 0.1% Nonidet P-40 and protease inhibitor cocktail] and sonicated. After centrifugation (14000 rpm for 15 minutes at 4° C.), the protein concentration was determined in the supernatants by the Bradford protein assay (Bio-Rad).
(§8) Whole cell extracts were prepared in buffer containing 100 mM Tris/HCl (pH, 6.8), 1 mM EDTA, 2% SDS and protease inhibitor cocktail. Following heat denaturation for 5 minutes, proteins were separated on 10% or 7% NuPAGE pre-cast Bis-Tris or Tris-Acetate polyacrylamide mini gels (Invitrogen) with MOPS SDS (all but cytochrome C, RNA polymerase II and phospho-Ser2—RNA polymerase II Western blots), MES SDS (cytochrome C), or Tris-Acetate SDS (RNA polymerase II and phospho-Ser2—RNA polymerase II) running buffer depending on protein size. Proteins were transferred to 0.45 μm nitrocellulose filters (Schleicher and Schuell). These were blocked with 5% low fat milk in Tris-Buffered Saline—Tween-20, incubated for 1 h with antibodies (anti-actin: 1:2000) or overnight at 4° C. (cytochome C: 1:500), Rb (1:500), phosphor-Rb (1:500), phospho-Thr320-PP1α (1:1000), RNA polymerase II (1:500), phosphor-Ser2-RNA polymerase II (1:500), Mcl-1 (1:500), caspase-9 (1:1000) and analyzed by Enhanced Chemiluminescence (ECL, Amersham).

[3] = system: retinoblastoma protein phosphorylation; assay: Western blot, retinoblastoma protein phosphorylation on CDK2/CDK4 sites in SH-SY5Y; format: cell-based, human; details: for total Rb: FIG. 8
Description: as §5, §7, §8

CDK7/cyclin H = CDK7/cyclin H (Homo sapiens, UniProt P50613); assay: CDK7/cyclin H kinase assay; format: biochemical; details: Table 4
Description: as §1, §2

LS 174T = assay: Cell survival, LS 174T; format: cell-based; details: Homo sapiens, LS174T; Table 6
Description: Cell viability was determined by measuring the reduction of 3-(4,5-dimethylthiazol-2-yl)-5-(3-carboxymethoxyphenyl)-2-(4-sulfophenyl)-2H-tetrazolium (MTS). Cell death was determined by measuring the level of lactate dehydrogenase activity (LDH) released upon cell lysis.

CDK1/cyclin B = CDK1/cyclin B kinase assay; format: biochemical, starfish
Description: as §3, §4

[4] = system: SH-SY5Y human neuroblastoma cells; assay: Cell survival (MTS assay), SH-SY5Y; format: cell-based; details: read-out: SH-SY5Y cell survival
Description: as §5

HCT116 (Spheroids) = assay: Cell survival, HCT116 (Spheroids); format: cell-based; details: Homo sapiens, HCT-116; Table 6
CDK2/cyclin E = CDK2/cyclin E (Homo sapiens, UniProt P24941); assay: CDK2/cyclin E kinase assay; format: biochemical; details: Table 5
Description: as §3, §2

cell lines = assay: Anti-proliferative activities on cell lines, summary; format: cell-based; details: in words; listed as formula Ib
p27 total protein = assay: Western blot, p27 total protein in SH-SY5Y; format: cell-based, human; details: FIG. 14, compared with (R)-Roscovitine
Description: as §6, §7
(§9) Whole cell extracts were prepared in buffer containing 100 mM Tris/HCl (pH, 6.8), 1 mM EDTA, 2% SDS and protease inhibitor cocktail. […]

HCT116 (Oncodesign) = assay: Cell survival, HCT116 (Oncodesign); format: cell-based; details: Homo sapiens, HCT-116; Table 6
LS 174T (Oncodesign) = assay: Cell survival, LS 174T (Oncodesign); format: cell-based; details: Homo sapiens, LS174T; Table 6
PARP cleavage = assay: Western blot, PARP cleavage in SH-SY5Y; format: cell-based, human; details: FIG. 15, compared with (R)-Roscovitine
Description: as §6, §7, §9

[5] = system: protein phosphatase 1-α Thr320 phosphorylation; assay: Western blot, protein phosphatase 1-α phosphorylation on Thr320 in SH-SY5Y; format: cell-based, human; details: FIG. 11, compared with (R)-Roscovitine
Description: as §6, §7, §9

Mcl-1 = assay: Western blot, survival factor Mcl-1 in SH-SY5Y; format: cell-based, human; details: FIG. 12, compared with (R)-Roscovitine
Description: as §6, §7, §9

p53 total protein = assay: Western blot, p53 total protein in SH-SY5Y; format: cell-based, human; details: FIG. 13, compared with (R)-Roscovitine
Description: as §6, §7, §9

[6] = Homo sapiens, Lymphocyte, LLC B-cells, read-out: Cell death induction
[7] = Homo sapiens, Lymphocyte, Table 6, read-out: Chronic Lymphocytic Leukemia cell survival
[8] = Table 5, read-out: CDK1/cyclin B

T1 sequence (Q00535 whole entry): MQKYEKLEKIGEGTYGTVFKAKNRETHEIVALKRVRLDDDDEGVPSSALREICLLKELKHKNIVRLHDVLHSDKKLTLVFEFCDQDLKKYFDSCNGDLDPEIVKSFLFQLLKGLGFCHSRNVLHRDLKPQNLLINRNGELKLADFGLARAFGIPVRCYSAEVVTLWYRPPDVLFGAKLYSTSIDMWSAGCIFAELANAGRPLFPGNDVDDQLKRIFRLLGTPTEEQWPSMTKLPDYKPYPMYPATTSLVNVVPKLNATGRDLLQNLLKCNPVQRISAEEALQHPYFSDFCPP
T1 sequence (Q15078 99-307 partner limits assumed): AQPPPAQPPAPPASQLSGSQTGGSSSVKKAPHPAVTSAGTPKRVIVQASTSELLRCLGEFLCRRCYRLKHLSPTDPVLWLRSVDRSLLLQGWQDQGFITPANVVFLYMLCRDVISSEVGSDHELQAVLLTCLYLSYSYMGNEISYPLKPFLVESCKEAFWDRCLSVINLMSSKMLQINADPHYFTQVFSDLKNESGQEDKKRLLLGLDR
T3 sequence (P50750 whole entry): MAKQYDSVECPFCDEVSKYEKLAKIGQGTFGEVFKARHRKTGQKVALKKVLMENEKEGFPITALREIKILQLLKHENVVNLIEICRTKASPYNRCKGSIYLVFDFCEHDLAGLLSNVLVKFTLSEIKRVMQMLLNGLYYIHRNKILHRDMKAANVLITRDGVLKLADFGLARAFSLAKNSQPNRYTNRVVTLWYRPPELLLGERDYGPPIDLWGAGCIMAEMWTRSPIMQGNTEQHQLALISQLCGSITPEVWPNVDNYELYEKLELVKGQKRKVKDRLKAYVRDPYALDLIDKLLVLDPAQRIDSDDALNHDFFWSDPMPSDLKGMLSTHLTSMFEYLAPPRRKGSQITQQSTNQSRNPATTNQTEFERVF
T3 sequence (O60563 whole entry partner): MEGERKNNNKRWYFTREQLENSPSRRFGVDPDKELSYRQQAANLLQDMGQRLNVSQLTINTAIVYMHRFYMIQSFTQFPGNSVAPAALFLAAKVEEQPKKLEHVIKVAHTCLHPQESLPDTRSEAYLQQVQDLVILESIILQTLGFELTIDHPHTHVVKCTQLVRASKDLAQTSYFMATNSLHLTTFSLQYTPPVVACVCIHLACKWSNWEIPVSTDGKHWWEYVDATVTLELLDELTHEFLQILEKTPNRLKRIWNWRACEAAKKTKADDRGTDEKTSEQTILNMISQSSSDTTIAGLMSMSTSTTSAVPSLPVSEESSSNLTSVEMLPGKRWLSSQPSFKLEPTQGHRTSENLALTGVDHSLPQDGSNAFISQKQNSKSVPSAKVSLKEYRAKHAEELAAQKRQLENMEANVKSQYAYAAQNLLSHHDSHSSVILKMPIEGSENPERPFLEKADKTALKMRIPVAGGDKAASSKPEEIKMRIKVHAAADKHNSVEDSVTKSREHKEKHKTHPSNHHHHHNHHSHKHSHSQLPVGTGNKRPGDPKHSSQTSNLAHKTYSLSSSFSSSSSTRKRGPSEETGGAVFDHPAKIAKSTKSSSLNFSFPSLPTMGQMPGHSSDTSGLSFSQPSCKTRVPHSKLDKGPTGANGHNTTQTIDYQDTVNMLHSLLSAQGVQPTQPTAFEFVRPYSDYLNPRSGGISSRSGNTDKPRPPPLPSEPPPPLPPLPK
Sequence of Erk2 (P28482 whole entry, species assumed): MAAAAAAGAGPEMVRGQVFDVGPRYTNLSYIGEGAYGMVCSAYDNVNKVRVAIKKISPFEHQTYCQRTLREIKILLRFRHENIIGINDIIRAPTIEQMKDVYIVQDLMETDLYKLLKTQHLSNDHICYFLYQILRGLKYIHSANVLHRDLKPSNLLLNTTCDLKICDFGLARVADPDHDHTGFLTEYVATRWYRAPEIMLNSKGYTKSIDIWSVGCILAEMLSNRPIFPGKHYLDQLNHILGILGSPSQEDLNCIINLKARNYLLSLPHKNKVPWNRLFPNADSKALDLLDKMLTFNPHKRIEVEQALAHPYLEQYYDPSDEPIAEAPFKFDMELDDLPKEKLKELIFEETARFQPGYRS
Sequence of CDK7/cyclin H (P50613 whole entry, species assumed): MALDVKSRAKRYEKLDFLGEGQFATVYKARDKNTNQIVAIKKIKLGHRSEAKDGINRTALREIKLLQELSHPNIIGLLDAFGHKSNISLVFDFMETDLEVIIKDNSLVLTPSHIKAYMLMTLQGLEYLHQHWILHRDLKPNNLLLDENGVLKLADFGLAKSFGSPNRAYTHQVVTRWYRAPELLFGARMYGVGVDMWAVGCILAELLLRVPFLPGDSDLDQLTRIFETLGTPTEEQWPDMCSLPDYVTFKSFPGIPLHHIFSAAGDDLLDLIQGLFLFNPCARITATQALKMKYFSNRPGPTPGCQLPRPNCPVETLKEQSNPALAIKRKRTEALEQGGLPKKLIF
Sequence of CDK7/cyclin H (P51946 whole entry partner, species assumed): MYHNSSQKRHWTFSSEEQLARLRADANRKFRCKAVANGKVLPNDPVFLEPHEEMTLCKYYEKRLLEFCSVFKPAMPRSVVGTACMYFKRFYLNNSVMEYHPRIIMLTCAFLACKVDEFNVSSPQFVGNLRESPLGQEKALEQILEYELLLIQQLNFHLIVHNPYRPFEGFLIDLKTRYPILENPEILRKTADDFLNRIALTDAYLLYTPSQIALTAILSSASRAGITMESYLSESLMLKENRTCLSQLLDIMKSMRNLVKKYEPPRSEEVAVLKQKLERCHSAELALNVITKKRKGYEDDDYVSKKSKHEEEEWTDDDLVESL

| IC50 (DYRK1A) [µM] | IC50 (CDK5/p25; Table 5, read-out: CDK5/p25) [nM] | IC50 (Erk2) [µM] | IC50 (CDK2/cyclin A) [nM] | IC50 (GSK-3α/β; Table 5, read-out: GSK-3α/β) [µM] | IC50 (CK1δ/ε; Table 5) [µM] | IC50 (CDK9/cyclin T) [nM] | IC50 (CDK1/cyclin B; [8]) [nM] | IC50 (CDK2/cyclin E) [nM] | Structure (SMILES) | IC50 (B2-CLL lymphocytes; [6]) [µM] | IC50 (B2-CLL lymphocytes; [7]) [µM] | IC50 ([1]; HEK293, Table 6, MTS assay) [µM] | total RNA pol II [2] | total Rb [3] | IC50 (LS 174T) [µM] | IC50 ([4]; Table 6, MTS assay) [µM] | IC50 (HCT116 (Spheroids)) [µM] | further results |
| --- | --- | --- | --- | --- | --- | --- | --- | --- | --- | --- | --- | --- | --- | --- | --- | --- | --- | --- |
| 2.8 | 400 | 7 | 300 | > 100 | 11 | 480 | 430 | 180 | CC[C@H](CO)Nc1cc(NCc2ccccc2)c2ncn(C(C)C)c2n1 [(R)-perharidine A] | 7.05 | 7.05 | 27.4 | essentially constant | essentially constant | 21.5 | 14.3 | 10 | IC50 (CDK5/p25; Table 4, read-out: CDK5): 200 nM; IC50 ([1]; HEK293, Table 4, MTS assay): 35.6 µM; IC50 (GSK-3α/β; Table 4, read-out: GSK3): > 30 µM; IC50 (CK1δ/ε; Table 4): 4 µM; IC50 (CDK7/cyclin H): 900 nM; IC50 (CDK1/cyclin B; Table 4, read-out: CDK1): 350 nM; IC50 ([4]; Table 4, MTS assay): 16.2 µM |
| 22 | 500 | 9 | 420 | > 30 | 4.8 | 1300 | 730 | 310 | CC[C@@H](CO)Nc1cc(NCc2ccccc2)c2ncn(C(C)C)c2n1 [(S)-perharidine B, (S)-7-Benzylamino-5-[(2-butyl-1-ol)amino]-3-iso-propylimidazo[4,5-b]pyridine] | 15.3 | 15.3 | 45 | essentially constant | essentially constant | 37.5 | 28 |  | anti-proliferative activities compared with (R)-Roscovitine (cell lines): somewhat less efficient |

| Structure (SMILES) | IC50 (DYRK1A) [µM] | IC50 (CDK5/p25; Table 5, read-out: CDK5/p25) [nM] | IC50 (Erk2) [µM] | IC50 (CDK2/cyclin A) [nM] | IC50 (GSK-3α/β; Table 5, read-out: GSK-3α/β) [µM] | IC50 (CK1δ/ε; Table 5) [µM] | IC50 (CDK9/cyclin T) [nM] | IC50 (CDK1/cyclin B; [8]) [nM] | IC50 (CDK2/cyclin E) [nM] | IC50 (B2-CLL lymphocytes; [6]) [µM] | IC50 (B2-CLL lymphocytes; [7]) [µM] | IC50 ([1]; HEK293, Table 6, MTS assay) [µM] | total RNA pol II [2] | total Rb [3] | IC50 (LS 174T) [µM] | IC50 ([4]; Table 6, MTS assay) [µM] | IC50 (HCT116 (Spheroids)) [µM] | further results |
| --- | --- | --- | --- | --- | --- | --- | --- | --- | --- | --- | --- | --- | --- | --- | --- | --- | --- | --- |
| CC[C@H](CO)Nc1cc(NCc2ccc(-c3ccccn3)cc2)c2ncn(C(C)C)c2n1 [(R)-perharidine C] | 11 | 600 | 22 | 360 | 11 | 1.1 | 530 | 460 | 250 | 0.31 | 0.31 |  | essentially constant | essentially constant |  | 1.46 | 0.35 | p27 total protein down-regulation (p27 total protein): at lower concentration than (R)-Roscovitine; IC50 (B2-CLL lymphocytes; LLC B-cells, read-out: Cell death induction): 0.28 µM; IC50 (HCT116 (Oncodesign)): 600 nM; IC50 (LS 174T (Oncodesign)): 290 nM; PARP cleavage (PARP cleavage): at lower concentration than (R)-Roscovitine; inhibition of CDK1/cyclin B in cells (protein phosphatase 1-α Thr320 phosphorylation) [5]: at lower concentration than (R)-Roscovitine; inhibition of CDK9 in cells (RNA polymerase II Ser2 phosphorylation) ([2]; FIG. 9, compared with (R)-Roscovitine): at lower concentration than (R)-Roscovitine; inhibition of CDK2/4 in cells (retinoblastoma protein phosphorylation) ([3]; compared with (R)-Roscovitine): at lower concentrations than (R)-Roscovitine; down-regulation of survival factor Mcl-1 (Mcl-1): at lower concentration than (R)-Roscovitine; p53 total protein expression (p53 total protein): at lower concentration than (R)-Roscovitine |
